# Measurements published in paper PMC13234881, “Synthesis and Cytotoxicity of Complex Betulinic Acid Amides” (ACS Omega, 2026).
# Key:
# cervical carcinoma HeLa = experiment: Cytotoxicity screening test, HeLa; format: cell-based; conditions: Homo sapiens; HeLa cervical cancer, 72 h; read-out: Cytotoxicity IC50 ± SD, HeLa
# From the text: (§1) The screening cell lines, T-lymphoblastic leukemia CCRF-CEM, breast carcinoma MCF7, cervical carcinoma HeLa, and human foreskin fibroblasts BJ, were obtained from the American Type Culture Collection (Manassas, VA, USA). The procedure for cell culturing has already been described. ,
# breast carcinoma MCF7 = experiment: Cytotoxicity screening test, MCF7; format: cell-based; conditions: Homo sapiens; MCF7 breast adenocarcinoma, 72 h; read-out: Cytotoxicity IC50 ± SD, MCF7
# From the text: as §1
smiles,measurement,setting,value
COc1cccc2c1C(=O)c1c(O)c3c(c(O)c1C2=O)C[C@@](O)(C(=O)CO)C[C@@H]3O[C@H]1C[C@H](N)[C@H](O)[C@H](C)O1 [doxorubicin],IC50,cervical carcinoma HeLa,868 ± 54 nM
same,IC50,breast carcinoma MCF7,273 ± 19 nM
